Assay results: patent US20250017940A1, “SELECTIVE PEPTIDOMIMETIC MODULATORS OF CAV2.2 (N-TYPE) VOLTAGE-GATED CALCIUM CHANNELS AND USES THEREOF” (New York University, priority 2023, published 2025)

Experiments:
[1] = target: T1, Cav2.1 (P/Q-type) calcium channels (Rattus norvegicus, UniProt P54282); assay: Whole-cell patch-clamp, isolated P/Q-type Ca2+ currents in DRG neurons; type: cell-based
T1 construct: Recordings were obtained from acutely dissociated DRG neurons; endogenous in cells; host or cells: acutely dissociated rat DRG neurons
T1 sequence (P54282 whole entry): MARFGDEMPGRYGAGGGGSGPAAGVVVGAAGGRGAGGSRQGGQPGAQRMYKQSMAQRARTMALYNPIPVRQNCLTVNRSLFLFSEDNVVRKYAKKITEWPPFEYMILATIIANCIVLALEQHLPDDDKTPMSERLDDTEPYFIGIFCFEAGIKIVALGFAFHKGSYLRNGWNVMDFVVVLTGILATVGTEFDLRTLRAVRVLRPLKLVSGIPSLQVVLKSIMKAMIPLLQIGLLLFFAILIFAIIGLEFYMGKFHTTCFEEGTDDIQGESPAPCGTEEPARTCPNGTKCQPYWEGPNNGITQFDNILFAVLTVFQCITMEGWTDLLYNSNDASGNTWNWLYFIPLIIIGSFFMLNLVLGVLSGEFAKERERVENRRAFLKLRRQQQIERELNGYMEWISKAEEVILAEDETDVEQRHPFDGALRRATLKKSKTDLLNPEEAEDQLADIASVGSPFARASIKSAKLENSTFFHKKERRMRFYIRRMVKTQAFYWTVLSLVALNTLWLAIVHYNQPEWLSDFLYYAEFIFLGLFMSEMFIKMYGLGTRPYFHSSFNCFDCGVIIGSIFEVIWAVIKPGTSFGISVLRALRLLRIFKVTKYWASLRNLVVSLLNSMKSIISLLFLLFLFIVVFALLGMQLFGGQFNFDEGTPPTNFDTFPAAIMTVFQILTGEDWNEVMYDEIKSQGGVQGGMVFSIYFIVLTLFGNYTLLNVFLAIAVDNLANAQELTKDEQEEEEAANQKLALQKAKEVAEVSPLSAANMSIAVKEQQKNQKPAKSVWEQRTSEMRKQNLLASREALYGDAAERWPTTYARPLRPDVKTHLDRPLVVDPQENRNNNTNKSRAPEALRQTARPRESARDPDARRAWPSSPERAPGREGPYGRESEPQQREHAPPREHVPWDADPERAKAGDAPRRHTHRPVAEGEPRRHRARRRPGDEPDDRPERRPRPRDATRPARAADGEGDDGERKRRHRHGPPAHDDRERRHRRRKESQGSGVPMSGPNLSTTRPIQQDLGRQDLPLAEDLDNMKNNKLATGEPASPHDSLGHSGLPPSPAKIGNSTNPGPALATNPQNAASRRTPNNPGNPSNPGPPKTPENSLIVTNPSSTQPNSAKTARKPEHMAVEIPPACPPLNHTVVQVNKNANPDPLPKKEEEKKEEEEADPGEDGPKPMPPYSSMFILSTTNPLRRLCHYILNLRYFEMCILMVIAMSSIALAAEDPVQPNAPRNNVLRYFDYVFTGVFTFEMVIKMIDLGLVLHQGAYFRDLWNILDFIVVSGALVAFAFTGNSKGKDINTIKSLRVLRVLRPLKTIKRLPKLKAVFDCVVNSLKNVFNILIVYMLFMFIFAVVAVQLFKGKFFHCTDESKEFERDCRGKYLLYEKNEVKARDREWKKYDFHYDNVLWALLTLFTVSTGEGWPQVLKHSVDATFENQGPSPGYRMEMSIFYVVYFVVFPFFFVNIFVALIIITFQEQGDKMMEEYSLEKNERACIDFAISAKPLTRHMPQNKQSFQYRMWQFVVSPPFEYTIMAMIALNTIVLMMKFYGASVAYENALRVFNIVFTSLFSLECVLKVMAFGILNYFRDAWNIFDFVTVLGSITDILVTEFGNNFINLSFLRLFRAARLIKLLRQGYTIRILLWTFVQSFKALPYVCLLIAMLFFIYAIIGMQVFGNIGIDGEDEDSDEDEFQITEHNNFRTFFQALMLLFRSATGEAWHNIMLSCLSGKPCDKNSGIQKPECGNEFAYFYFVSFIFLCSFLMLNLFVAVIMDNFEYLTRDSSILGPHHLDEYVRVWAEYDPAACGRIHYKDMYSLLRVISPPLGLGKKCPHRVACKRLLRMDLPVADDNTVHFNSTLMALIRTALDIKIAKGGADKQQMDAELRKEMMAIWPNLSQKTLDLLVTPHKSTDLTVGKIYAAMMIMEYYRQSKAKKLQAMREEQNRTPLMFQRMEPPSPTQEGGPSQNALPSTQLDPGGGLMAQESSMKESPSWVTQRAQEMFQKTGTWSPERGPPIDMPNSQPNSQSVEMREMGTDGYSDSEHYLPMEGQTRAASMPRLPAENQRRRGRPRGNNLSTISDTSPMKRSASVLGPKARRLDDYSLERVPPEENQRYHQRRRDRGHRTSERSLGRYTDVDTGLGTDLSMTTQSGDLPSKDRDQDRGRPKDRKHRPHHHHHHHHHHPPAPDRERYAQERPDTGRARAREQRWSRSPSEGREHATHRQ
T1 sequence (P54290 25-1091 partner): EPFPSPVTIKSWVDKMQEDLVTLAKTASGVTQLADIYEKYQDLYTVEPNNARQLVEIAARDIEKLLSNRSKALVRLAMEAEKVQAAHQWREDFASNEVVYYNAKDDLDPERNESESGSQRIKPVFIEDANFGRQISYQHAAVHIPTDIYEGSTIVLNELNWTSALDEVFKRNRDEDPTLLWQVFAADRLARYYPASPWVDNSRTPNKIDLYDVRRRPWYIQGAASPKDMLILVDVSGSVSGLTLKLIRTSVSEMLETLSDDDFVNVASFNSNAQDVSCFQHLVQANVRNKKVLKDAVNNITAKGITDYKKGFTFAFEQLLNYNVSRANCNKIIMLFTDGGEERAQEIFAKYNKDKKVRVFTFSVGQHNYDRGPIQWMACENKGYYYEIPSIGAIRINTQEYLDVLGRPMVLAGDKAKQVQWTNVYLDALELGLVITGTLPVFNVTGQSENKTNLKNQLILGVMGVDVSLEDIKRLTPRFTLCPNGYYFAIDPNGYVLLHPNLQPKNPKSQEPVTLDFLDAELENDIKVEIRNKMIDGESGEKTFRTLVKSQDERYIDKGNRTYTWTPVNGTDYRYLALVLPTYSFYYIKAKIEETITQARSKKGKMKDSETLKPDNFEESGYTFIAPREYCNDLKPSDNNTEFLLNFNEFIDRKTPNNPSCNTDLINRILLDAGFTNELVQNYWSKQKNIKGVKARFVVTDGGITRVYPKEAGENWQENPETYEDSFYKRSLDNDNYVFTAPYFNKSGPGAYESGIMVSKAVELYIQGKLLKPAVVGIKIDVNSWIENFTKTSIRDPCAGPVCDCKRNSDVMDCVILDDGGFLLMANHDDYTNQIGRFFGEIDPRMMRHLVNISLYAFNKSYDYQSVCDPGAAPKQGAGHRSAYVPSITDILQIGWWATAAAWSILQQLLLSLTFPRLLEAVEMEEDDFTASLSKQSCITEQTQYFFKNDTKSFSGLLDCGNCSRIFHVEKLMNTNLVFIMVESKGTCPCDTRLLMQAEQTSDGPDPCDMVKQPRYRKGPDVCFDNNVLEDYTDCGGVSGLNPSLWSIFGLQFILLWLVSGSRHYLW
T1 sequence (P54287 whole entry partner): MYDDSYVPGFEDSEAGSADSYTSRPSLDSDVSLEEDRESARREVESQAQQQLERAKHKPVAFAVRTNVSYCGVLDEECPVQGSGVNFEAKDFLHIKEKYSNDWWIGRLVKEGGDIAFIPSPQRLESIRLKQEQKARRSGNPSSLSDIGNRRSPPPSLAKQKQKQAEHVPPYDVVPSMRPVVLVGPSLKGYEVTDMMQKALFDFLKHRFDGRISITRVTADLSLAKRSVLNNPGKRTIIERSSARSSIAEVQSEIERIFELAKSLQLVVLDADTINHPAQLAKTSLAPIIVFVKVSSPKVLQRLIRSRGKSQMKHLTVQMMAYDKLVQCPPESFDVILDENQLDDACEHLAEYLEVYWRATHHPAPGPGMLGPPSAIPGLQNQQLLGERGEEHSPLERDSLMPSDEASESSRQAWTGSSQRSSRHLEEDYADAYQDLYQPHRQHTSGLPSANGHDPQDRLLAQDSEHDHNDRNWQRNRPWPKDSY
Procedure: (§1) Recordings were obtained from acutely dissociated DRG neurons as described earlier (Bellampalli et al., 2019). Patch-clamp recordings were performed at room temperature (22-24° C.). Currents were recorded using an EPC 10 Amplifier-HEKA (HEKA Elektronik, Ludwigshafen, Germany) linked to a computer with Patchmaster software. DRG neurons were incubated overnight (˜16-24 hours) with 20 μM of CBD3063.
For total calcium current (ICa^2+) recordings, the external solution consisted of the following (in mM): 110 N-methyl-D-glucamine, 10 BaCl2, 30 TEA-Cl, 10 HEPES, 10 glucose, and 0.001 TTX (pH 7.29 adjusted with TEA-OH, and mOsm/L=310). Patch pipettes were filled with an internal solution containing (in mM): 150 CsCl2, 10 HEPES, 5 Mg-ATP, and 5 BAPTA, (pH 7.2 adjusted with CsOH, and mOsm/L-305). Peak Ca^2+ current was acquired by applying 200-millisecond voltage steps from −70 to +60 mV in 10-mV increments from a holding potential of −90 mV to obtain the current-voltage (I-V) relation. To measure the different subtypes of Ca^2+ channels, DRGs were treated with a Cav inhibitor cocktail omitting the inhibitor specific to the subtype being tested (e.g., to measure Cav2.2 currents, ω-conotoxin GVIA is omitted): Nifedipine (10 μM, L-type), ω-Conotoxin-GVIA (500 nM, […]) (Feng, et al., 2001), SNX482 (200 nM, R-type) (Newcomb et al., 1998), ω-agatoxin (200 nM, P/Q-type) (Mintz et al., 1992), TTA-P2 (1 μM, T-type) (Choe et al., 2011).
(§2) Normalization of currents to each cell's capacitance (pF) was performed to allow for collection of current density data. For I-V curves, functions were fitted to data using a non-linear least squares analysis. I-V curves were fitted using double Boltzmann functions:
where x is the pre-pulse potential, V1/2 is the mid-point potential, and k is the corresponding slope factor for single Boltzmann functions. Double Boltzmann fits were used to describe the shape of the curve, not to imply the existence of separate channel populations. Numbers 1 and 2 simply indicate first and second mid-points; a along with g are fitting parameters.
(§3) Activation curves were obtained from the I-V curves by dividing the peak current at each depolarizing step by the driving force according to the equation: G=I/(Vmem-Erev), where I is the peak current, Vmem is the membrane potential and Erev is the reversal potential. The conductance (G) was normalized against the maximum conductance (Gmax). For total and the different subtypes of Ca^2+ currents, steady-state inactivation (SSI) curves were obtained by applying an H-infinity protocol that consisted of 1.5-seconds conditioning pre-pulses from −100 to +30 mV in 10-mV increments followed by a 20-millisecond test pulse to +10 mV. For Na^+ currents, SSI curves were obtained by applying an H-infinity protocol that consisted of 1-second conditioning pre-pulses from −120 to +10 mV in 10-mV increments followed by a 200-millisecond test pulse to +10 mV. Inactivation curves were obtained by dividing the peak current recorded at the test pulse by the maximum current (Imax). Activation and SSI curves were fitted with the Boltzmann equation.

[2] = test system: Na+ channels; assay: Whole-cell patch-clamp, total Na+ currents in DRG neurons; type: cell-based, rat
Procedure: as §1
For Na^+ current (INa^+) recordings, the external solution contained (in mM): 130 NaCl, 3 KCl, 30 tetraethylammonium chloride, 1 CaCl2, 0.5 CdCl2, 1 MgCl2, 10 D-glucose, and 10 HEPES (pH 7.3 adjusted with NaOH, and mOsm/L=324). Patch pipettes were filled with an internal solution containing (in mM): 140 CsF, 1.1Cs-EGTA, 10 NaCl, and 15 HEPES (pH 7.3 adjusted with CsOH, and mOsm/L=311). Peak Na^+ current was acquired by applying 150-millisecond voltage steps from −70 to +60 mV in 5-mV increments from a holding potential of −60 mV to obtain the current-voltage (I-V) relation.
as §2, §3

[3] = 20 μM overnight, mean ± SEM (n cells)

CC(=O)N[C@@H]1CCCN(C(=O)NCCCNc2ccccn2)C1 [CBD3063, (3R)-3-acetamido-N-[3-(pyridin-2-ylamino)propyl]piperidine-1-carboxamide]
effect on Ca2+ influx through Cav2.1 (P/Q-type) channels (current density-voltage curve, peak current density) ([1]; 20 μM overnight vs 0.1% DMSO): does not alter
P/Q-type Ca2+ currents, activation V1/2 [1, 3]: −3.265 ± 0.824 (7) mV
P/Q-type Ca2+ currents, activation k (slope factor) [1, 3]: 4.186 ± 0.663 (7)
P/Q-type Ca2+ currents, inactivation V1/2 [1, 3]: −18.667 ± 1.688 (7) mV
P/Q-type Ca2+ currents, inactivation k (slope factor) [1, 3]: −9.396 ± 1.470 (7)
peak Na+ current density ([2]; 20 μM overnight (DMSO: −455.7±78.70)): −455.0±60.79 pA/pF
Na+ currents, activation V1/2 [2, 3]: −21.738 ± 0.852 (12) mV
Na+ currents, activation k (slope factor) [2, 3]: 4.749 ± 0.744 (12)
Na+ currents, inactivation V1/2 [2, 3]: −32.552 ± 2.084 (12) mV
Na+ currents, inactivation k (slope factor) [2, 3]: −12.003 ± 1.936 (12)
